Results from patent US10654834B2 (Venenum Biodesign, LLC, priority 2016, dated 2020).

Assays:
human TGR5 receptor = target: T1, human TGR5 receptor (Homo sapiens, UniProt Q8TDU6); assay: Human TGR5 cAMP production assay (hTGR5-CHO cells, DiscoveRx cAMP XS+ kit); type: cell-based; details: luminescent cAMP assay, read-out: Human TGR5 Lum. cAMP Activity (EC50)
T1 construct: host or cells: CHO-K1 (hTGR5-CHO)
T1 sequence (Q8TDU6 1-330): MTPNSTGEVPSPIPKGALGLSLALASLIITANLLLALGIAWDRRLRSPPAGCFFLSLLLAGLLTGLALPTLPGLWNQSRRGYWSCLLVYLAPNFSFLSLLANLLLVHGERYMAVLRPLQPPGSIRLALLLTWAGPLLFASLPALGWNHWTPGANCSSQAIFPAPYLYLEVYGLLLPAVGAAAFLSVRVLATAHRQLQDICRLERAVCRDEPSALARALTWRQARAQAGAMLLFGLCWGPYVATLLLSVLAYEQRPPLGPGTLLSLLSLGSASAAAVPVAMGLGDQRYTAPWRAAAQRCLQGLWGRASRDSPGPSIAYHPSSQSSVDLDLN
Outline: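 EC50 values come from luminescent enzyme-complementation cAMP detection, read after overnight incubation. Beforehand, hTGR5-expressing CHO-K1 cells with IBMX and anti-cAMP antibody were exposed 1 h at room temperature to serially diluted (half-log) compounds.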

mouse TGR5 receptor [1] = target: T2, mouse TGR5 receptor (Mus musculus, UniProt Q80SS6); assay: Mouse TGR5 HTRF cAMP production assay (HEK293-EBNA cells, Cisbio cAMP HiRange kit); type: cell-based; details: HEK293-EBNA cells overexpressing mouse TGR5, HTRF cAMP assay
T2 construct: host or cells: HEK293-EBNA (293 c18, ATCC CRL10852)
T2 sequence (Q80SS6 1-329): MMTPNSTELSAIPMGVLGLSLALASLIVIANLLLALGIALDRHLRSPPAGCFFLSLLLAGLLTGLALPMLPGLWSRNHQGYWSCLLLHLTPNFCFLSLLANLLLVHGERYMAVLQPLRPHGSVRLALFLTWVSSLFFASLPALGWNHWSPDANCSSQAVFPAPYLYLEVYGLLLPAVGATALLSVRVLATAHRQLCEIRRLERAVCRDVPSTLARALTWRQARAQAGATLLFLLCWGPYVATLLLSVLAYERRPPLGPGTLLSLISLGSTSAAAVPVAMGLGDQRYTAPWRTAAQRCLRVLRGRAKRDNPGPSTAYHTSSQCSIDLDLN
Outline: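 cAMP accumulation was read by competitive HTRF after 1 h room-temperature compound treatment, with a further 1 h conjugate incubation. Cells were mouse TGR5-overexpressing HEK293-EBNA in serum-free DMEM plus 500 μM IBMX. Compounds ran as 12-point half-log series in duplicate, and EC50 values were reported.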

mouse TGR5 receptor [2] = target: T2, mouse TGR5 receptor; assay: Mouse TGR5 luminescent cAMP production assay (HEK293-EBNA cells, DiscoveRx cAMP XS+ kit); type: cell-based; details: HEK293-EBNA cells overexpressing mouse TGR5, luminescent cAMP assay; read-out: Mouse TGR5 Lum. cAMP Activity (EC50)
Outline: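 HEK293-EBNA cells stably expressing mouse TGR5, resuspended in serum-free DMEM with 500 μM IBMX, were premixed 20 min with cAMP antibody, then exposed to half-log compound dilutions for 1 h at room temperature. cAMP was read by luminescent enzyme-fragment complementation (cAMP XS+) after overnight incubation; EC50 derived.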

[3] = Pharmacokinetic profile in mice after oral gavage; type: in vivo, mouse; details: mouse; fasted male Hilltop mice, 10 mg/kg oral gavage, plasma; read-out: Cmax
Outline: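 Plasma exposure (Cmax, AUC) by non-compartmental analysis of LC-MS/MS data, orbital blood taken at 0, 0.25, 0.5, 1, 2 and 4 h, each value averaging three mice. Dosing: 10 mg/kg oral gavage to overnight-fasted male Hilltop mice (8 weeks), vehicle PEG400/CMC/Tween-80.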

Cc1csc(-c2cc(N3CCC[C@H]3C(=O)NCCc3ccc(C#N)cc3)nc(C(F)(F)F)n2)c1 [Compound 171, (S)-N-(4-cyanophenethyl)-1-(6-(4-methylthiophen-2-yl)-2-(trifluoromethyl)pyrimidin-4-yl)pyrrolidine-2-carboxamide]
EC50 (human TGR5 receptor): 0.1 to 0.999 µM
EC50 (mouse TGR5 receptor [1]): < 0.1 µM
EC50 (mouse TGR5 receptor [2]): 0.1 to 0.999 µM

N#Cc1ccc(CCNC(=O)[C@@H]2CCCN2c2cc(-c3cc4ccccc4s3)nc(C(F)(F)F)n2)cc1 [Compound 173, (S)-1-(6-(benzo[b]thiophen-2-yl)-2-(trifluoromethyl)pyrimidin-4-yl)-N-(4-cyanophenethyl)pyrrolidine-2-carboxamide]
EC50 (human TGR5 receptor): 0.1 to 0.999 µM
EC50 (mouse TGR5 receptor [1]): 0.1 to 0.999 µM
EC50 (mouse TGR5 receptor [2]): 0.1 to 0.999 µM

Cc1ccc(-c2cc(N3CCC[C@H]3C(=O)NCCc3ccc(C#N)cc3)nc(C(F)(F)F)n2)s1 [Compound 170, (S)-N-(4-cyanophenethyl)-1-(6-(5-methylthiophen-2-yl)-2-(trifluoromethyl)pyrimidin-4-yl)pyrrolidine-2-carboxamide]
EC50 (human TGR5 receptor): 0.1 to 0.999 µM
EC50 (mouse TGR5 receptor [1]): 0.1 to 0.999 µM
EC50 (mouse TGR5 receptor [2]): 0.1 to 0.999 µM

N#Cc1ccc(CCNC(=O)[C@@H]2C[C@@H](O)CN2c2cc(N3CCC(CCO)CC3)nc(C(F)(F)F)n2)cc1 [Compound 210, (2S,4R)—N-(4-cyanophenethyl)-4-hydroxy-1-(6-(4-(2-hydroxyethyl)piperidin-1-yl)-2-(trifluoromethyl)pyrimidin-4-yl)pyrrolidine-2-carboxamide]
Cmax [3]: 0.054 µg/mL
EC50 (human TGR5 receptor): 0.1 to 0.999 µM
EC50 (mouse TGR5 receptor [2]): 0.1 to 0.999 µM

N#Cc1ccc(CCNC(=O)[C@@H]2CCCN2c2cc(NCc3ccncc3)nc(C(F)(F)F)n2)cc1 [Compound 13]
EC50 (human TGR5 receptor): 0.1 to 0.999 µM
EC50 (mouse TGR5 receptor [2]): < 0.1 µM

N#Cc1ccc(CCNC(=O)[C@@H]2CCCN2c2cc(-c3ccc(CN)cc3)nc(C(F)(F)F)n2)cc1 [Compound 185, (S)-1-(6-(4-(aminomethyl)phenyl)-2-(trifluoromethyl)pyrimidin-4-yl)-N-(4-cyanophenethyl)pyrrolidine-2-carboxamide]
EC50 (human TGR5 receptor): 0.1 to 0.999 µM
EC50 (mouse TGR5 receptor [2]): 0.1 to 0.999 µM

N#Cc1ccc(CCNC(=O)[C@@H]2CCCN(c3cc(N4CCN(CCO)CC4)nc(C(F)(F)F)n3)C2)cc1 [Compound 313, (R)-N-(4-cyanophenethyl)-1-(6-(4-(2-hydroxyethyl)piperazin-1-yl)-2-(trifluoromethyl)pyrimidin-4-yl)piperidine-3-carboxamide]
EC50 (human TGR5 receptor): 0.1 to 0.999 µM
EC50 (mouse TGR5 receptor [2]): 0.1 to 0.999 µM

O=C(NCCc1ccc(C(F)(F)F)cc1)[C@@H]1CCCN(c2cc(NC3CCOCC3)nc(C(F)(F)F)n2)C1 [Compound 326, (R)-1-(6-((tetrahydro-2H-pyran-4-yl)amino)-2-(trifluoromethyl)-pyrimidin-4-yl)-N-(4-(trifluoromethyl)phenethyl)piperidine-3-carboxamide]
EC50 (human TGR5 receptor): 0.1 to 0.999 µM
EC50 (mouse TGR5 receptor [2]): < 0.1 µM

COCC(=O)N1CCN(c2cc(N3CCC[C@@H](C(=O)NCCc4ccc(C(F)(F)F)cc4)C3)nc(C(F)(F)F)n2)CC1 [Compound 337, (R)-1-(6-(4-(2-methoxyacetyl)piperazin-1-yl)-2-(trifluoromethyl)pyrimidin-4-yl)-N-(4-(trifluoromethyl)phenethyl)piperidine-3-carboxamide]
EC50 (human TGR5 receptor): 0.1 to 0.999 µM
EC50 (mouse TGR5 receptor [2]): < 0.1 µM

N#Cc1ccc(CCNC(=O)[C@@H]2CCCN2c2cc(-c3ccc(OC(F)(F)F)cc3)nc(C(F)(F)F)n2)cc1 [Compound 150, (S)-N-(4-cyanophenethyl)-1-(6-(4-(trifluoromethoxy)phenyl)-2-(trifluoromethyl)pyrimidin-4-yl)pyrrolidine-2-carboxamide]
EC50 (human TGR5 receptor): 0.1 to 0.999 µM
EC50 (mouse TGR5 receptor [2]): 0.1 to 0.999 µM

COCC1CCN(c2cc(N3CCC[C@H]3C(=O)NCCc3ccc(C(F)(F)F)cc3)nc(C(F)(F)F)n2)CC1 [Compound 8]
EC50 (human TGR5 receptor): < 0.1 µM
EC50 (mouse TGR5 receptor [2]): 0.1 to 0.999 µM

CCCCCCc1ccc(-c2cc(N3CCC[C@H]3C(=O)NCCc3ccc(C#N)cc3)nc(C(F)(F)F)n2)s1 [Compound 139, (S)—N-(4-cyanophenethyl)-1-(6-(5-hexylthiophen-2-yl)-2-(trifluoromethyl)pyrimidin-4-yl)pyrrolidine-2-carboxamide]
EC50 (human TGR5 receptor): 1 to 30 µM
EC50 (mouse TGR5 receptor [2]): 1 to 30 µM

CN(C)c1cc(N2CCC[C@@H](C(=O)NCCc3ccc(C(F)(F)F)cc3)C2)nc(C(F)(F)F)n1 [Compound 322, (R)-1-(6-(dimethylamino)-2-(trifluoromethyl)pyrimidin-4-yl)-N-(4-(trifluoromethyl)phenethyl)piperidine-3-carboxamide]
EC50 (human TGR5 receptor): 0.1 to 0.999 µM
EC50 (mouse TGR5 receptor [2]): 1 to 30 µM

O=C(NCCc1ccc(C(F)(F)F)cc1)[C@@H]1CCCN(c2cc(NCCN3CCOCC3)nc(C(F)(F)F)n2)C1 [Compound 325, (R)-1-(6-((2-morpholinoethyl)amino)-2-(trifluoromethyl)pyrimidin-4-yl)-N-(4-(trifluoromethyl)phenethyl)-piperidine-3-carboxamide]
EC50 (human TGR5 receptor): 0.1 to 0.999 µM
EC50 (mouse TGR5 receptor [2]): < 0.1 µM

N#Cc1ccc(CCNC(=O)[C@@H]2CCCN2c2cc(-c3ccccn3)nc(C(F)(F)F)n2)cc1 [Compound 162, (S)-N-(4-cyanophenethyl)-1-(6-(pyridin-2-yl)-2-(trifluoromethyl)pyrimidin-4-yl)pyrrolidine-2-carboxamide]
EC50 (human TGR5 receptor): 0.1 to 0.999 µM
EC50 (mouse TGR5 receptor [2]): 0.1 to 0.999 µM

Cc1noc(C)c1-c1cc(N2CCC[C@H]2C(=O)NCCc2ccc(C#N)cc2)nc(C(F)(F)F)n1 [Compound 156, (S)-N-(4-cyanophenethyl)-1-(6-(3,5-dimethylisoxazol-4-yl)-2-(trifluoromethyl)pyrimidin-4-yl)pyrrolidine-2-carboxamide]
EC50 (human TGR5 receptor): 1 to 30 µM
EC50 (mouse TGR5 receptor [2]): 1 to 30 µM

CN(C)CC1CCN(c2cc(N3CC[C@H]3C(=O)NCCc3ccc(C#N)cc3)nc(C(F)(F)F)n2)CC1 [Compound 221, (S)-N-(4-cyanophenethyl)-1-(6-(4-((dimethylamino)methyl)piperidin-1-yl)-2-(trifluoromethyl)pyrimidin-4-yl)azetidine-2-carboxamide]
EC50 (human TGR5 receptor): 0.1 to 0.999 µM
EC50 (mouse TGR5 receptor [2]): < 0.1 µM

COc1cc(-c2cc(N3CCC[C@H]3C(=O)NCCc3ccc(C#N)cc3)nc(C(F)(F)F)n2)c(Cl)cn1 [Compound 161, (S)-1-(6-(5-chloro-2-methoxy-pyridin-4-yl)-2-(trifluoromethyl)pyrimidin-4-yl)-N-(4-cyanophenethyl)pyrrolidine-2-carboxamide]
EC50 (human TGR5 receptor): 1 to 30 µM
EC50 (mouse TGR5 receptor [2]): < 0.1 µM

O=C(NCCc1ccc(C(F)(F)F)cc1)[C@@H]1CCCN1c1cc(-c2ccncc2)nc(C(F)(F)F)n1 [Compound 140, (S)-1-(6-(pyridin-4-yl)-2-(trifluoromethyl)pyrimidin-4-yl)-N-(4-(trifluoromethyl)phenethyl)pyrrolidine-2-carboxamide]
EC50 (human TGR5 receptor): 0.1 to 0.999 µM
EC50 (mouse TGR5 receptor [2]): 0.1 to 0.999 µM

COCC1CCN(c2cc(N3CC[C@H]3C(=O)NCCc3ccc(C#N)cc3)nc(C(F)(F)F)n2)CC1 [Compound 222, (S)-N-(4-cyanophenethyl)-1-(6-(4-(methoxymethyl)piperidin-1-yl)-2-(trifluoromethyl)pyrimidin-4-yl)azetidine-2-carboxamide]
EC50 (human TGR5 receptor): < 0.1 µM
EC50 (mouse TGR5 receptor [2]): 0.1 to 0.999 µM
